Assay [1] deals with Muscarinic acetylcholine receptor M3 (Homo sapiens, UniProt P20309). Nature of the assay: Displacement of [3H]-NMS from human recombinant M3 receptor expressed in CHO cell membranes measured after 60 mins by topcount liquid scintillation counting.
The next assay has as its system Cavia porcellus. Nature of the assay: Bronchoprotective activity in Dunkan-Hartley guinea pig model of acetylcholine-induced bronchoconstriction assessed as efficacious dose that limited bronchrestriction response to 50 ug/mL dose of acetylcholine to doubling of baseline pulmonary resistance administered via nebulization for 10 mins measured at 1.5 hrs post dose by whole body plethysmography. It counts as functional.

The term Ki denotes the equilibrium dissociation constant of an inhibitor or competing ligand from its target.

Muscarinic acetylcholine receptor M3, sequence (P20309 whole entry): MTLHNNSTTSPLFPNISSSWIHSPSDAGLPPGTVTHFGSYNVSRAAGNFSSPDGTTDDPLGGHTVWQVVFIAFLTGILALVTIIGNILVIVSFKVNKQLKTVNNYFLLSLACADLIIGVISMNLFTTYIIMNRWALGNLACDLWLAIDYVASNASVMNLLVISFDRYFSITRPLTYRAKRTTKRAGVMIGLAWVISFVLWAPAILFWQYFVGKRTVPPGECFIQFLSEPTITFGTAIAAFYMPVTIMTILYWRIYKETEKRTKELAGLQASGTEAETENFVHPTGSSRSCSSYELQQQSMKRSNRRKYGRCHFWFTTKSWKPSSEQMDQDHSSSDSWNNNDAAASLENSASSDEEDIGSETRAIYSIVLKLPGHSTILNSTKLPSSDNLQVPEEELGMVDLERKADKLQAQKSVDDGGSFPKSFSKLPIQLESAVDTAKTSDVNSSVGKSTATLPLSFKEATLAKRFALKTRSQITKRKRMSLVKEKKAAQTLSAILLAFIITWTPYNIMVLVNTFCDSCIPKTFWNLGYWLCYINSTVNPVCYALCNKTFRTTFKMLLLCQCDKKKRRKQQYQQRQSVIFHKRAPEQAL

Regarding `CCN(CCN1CCC(OC(=O)Nc2ccccc2-c2ccccc2)CC1)C(=O)c1ccc(CN2CCC(C(N)=O)CC2)cc1`, the Ki in assay [1] is under 5 nM. On to `CN(CCN1CCC(OC(=O)Nc2ccccc2-c2ccccc2)CC1)C(=O)c1ccc(CN2CCC(C(N)=O)CC2)cc1` [REVEFENACIN], for which, in the assay with Cavia porcellus, the ED was under 200 µg/mL.

These data come from ChEMBL document CHEMBL3882243, “Biphenyl compounds useful as muscarinic receptor antagonists” (2005).
